Laboratory results published in PubChem BioAssay (NCI).
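Grown in 96-well plates, cells were treated for 48 hours with each compound at five concentrations. Insufficient inhibition: endpoint recorded as highest concentration tested. GI50: concentration for 50% inhibition of growth. TGI is the concentration that stops growth completely.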

Experiments:
Assay in all cases: NCI-60 cell line screen, 48 h; in the data active = GI50 below about 0.43 µM; inactive = the rest
786-0 renal = tested on: 786-0 renal
A498 renal = tested on: A498 renal
A549 NSCLC = tested on: A549 NSCLC
ACHN renal = tested on: ACHN renal
CAKI-1 renal = tested on: CAKI-1 renal
CCRF-CEM leukemia = tested on: CCRF-CEM leukemia
COLO 205 colon = tested on: COLO 205 colon
DLD-1 colon = tested on: DLD-1 colon
DMS 114 small cell lung = tested on: DMS 114 small cell lung
EKVX NSCLC = tested on: EKVX NSCLC
HCC-2998 colon = tested on: HCC-2998 colon
HCT-116 colon = tested on: HCT-116 colon
HCT-15 colon = tested on: HCT-15 colon
HOP-18 NSCLC = tested on: HOP-18 NSCLC
HOP-62 NSCLC = tested on: HOP-62 NSCLC
HOP-92 NSCLC = tested on: HOP-92 NSCLC
HT29 colon = tested on: HT29 colon
IGROV1 ovarian = tested on: IGROV1 ovarian
K-562 leukemia = tested on: K-562 leukemia
KM12 colon = tested on: KM12 colon
KM20L2 colon = tested on: KM20L2 colon
LOX IMVI melanoma = tested on: LOX IMVI melanoma
M14 melanoma = tested on: M14 melanoma
M19-MEL melanoma = tested on: M19-MEL melanoma
MALME-3M melanoma = tested on: MALME-3M melanoma
MOLT-4 leukemia = tested on: MOLT-4 leukemia
NCI-H226 lung = tested on: NCI-H226 lung
NCI-H23 lung = tested on: NCI-H23 lung
NCI-H460 lung = tested on: NCI-H460 lung
NCI-H522 lung = tested on: NCI-H522 lung
OVCAR-3 ovarian = tested on: OVCAR-3 ovarian
OVCAR-4 ovarian = tested on: OVCAR-4 ovarian
OVCAR-5 ovarian = tested on: OVCAR-5 ovarian
OVCAR-8 ovarian = tested on: OVCAR-8 ovarian
RXF 393 renal = tested on: RXF 393 renal
SF-268 CNS = tested on: SF-268 CNS
SF-295 CNS = tested on: SF-295 CNS
SF-539 CNS = tested on: SF-539 CNS
SK-MEL-2 melanoma = tested on: SK-MEL-2 melanoma
SK-MEL-28 melanoma = tested on: SK-MEL-28 melanoma
SK-MEL-5 melanoma = tested on: SK-MEL-5 melanoma
SK-OV-3 ovarian = tested on: SK-OV-3 ovarian
SN12C renal = tested on: SN12C renal
SNB-19 CNS = tested on: SNB-19 CNS
SNB-75 CNS = tested on: SNB-75 CNS
SNB-78 CNS = tested on: SNB-78 CNS
SR leukemia = tested on: SR leukemia
SW-620 colon = tested on: SW-620 colon
TK-10 renal = tested on: TK-10 renal
U251 CNS = tested on: U251 CNS
UACC-257 melanoma = tested on: UACC-257 melanoma
UACC-62 melanoma = tested on: UACC-62 melanoma
UO-31 renal = tested on: UO-31 renal

CC(=O)[CH-]C(=O)Nc1ccccc1.CC(=O)[CH-]C(=O)Nc1ccccc1.CC[O-].CC[O-].[Ti+4]
> 100 µM: TGI (786-0 renal) | TGI (A498 renal) | TGI (A549 NSCLC) | TGI (ACHN renal) | TGI (CAKI-1 renal) | TGI (CCRF-CEM leukemia) | TGI (COLO 205 colon) | TGI (DLD-1 colon) | TGI (DMS 114 small cell lung) | TGI (EKVX NSCLC) | TGI (HCC-2998 colon) | TGI (HCT-116 colon) | TGI (HCT-15 colon) | TGI (HOP-18 NSCLC) | TGI (HOP-62 NSCLC) | TGI (HOP-92 NSCLC) | TGI (HT29 colon) | TGI (IGROV1 ovarian) | TGI (K-562 leukemia) | TGI (KM12 colon) | TGI (KM20L2 colon) | TGI (LOX IMVI melanoma) | TGI (M14 melanoma) | TGI (M19-MEL melanoma) | TGI (MALME-3M melanoma) | TGI (MOLT-4 leukemia) | TGI (NCI-H226 lung) | TGI (NCI-H23 lung) | TGI (NCI-H460 lung) | TGI (NCI-H522 lung) | TGI (OVCAR-3 ovarian) | TGI (OVCAR-4 ovarian) | TGI (OVCAR-5 ovarian) | TGI (OVCAR-8 ovarian) | TGI (RXF 393 renal) | TGI (SF-268 CNS) | TGI (SF-295 CNS) | TGI (SF-539 CNS) | TGI (SK-MEL-2 melanoma) | TGI (SK-MEL-28 melanoma) | TGI (SK-MEL-5 melanoma) | TGI (SK-OV-3 ovarian) | TGI (SN12C renal) | TGI (SNB-19 CNS) | TGI (SNB-75 CNS) | TGI (SNB-78 CNS) | TGI (SR leukemia) | TGI (SW-620 colon) | TGI (TK-10 renal) | TGI (U251 CNS) | TGI (UACC-257 melanoma) | TGI (UACC-62 melanoma) | TGI (UO-31 renal)
inactive: GI50 (786-0 renal) > 100 µM | GI50 (A498 renal) > 100 µM | GI50 (A549 NSCLC) > 100 µM | GI50 (ACHN renal) > 100 µM | GI50 (CAKI-1 renal) > 100 µM | GI50 (CCRF-CEM leukemia) > 100 µM | GI50 (COLO 205 colon) > 100 µM | GI50 (DLD-1 colon) > 100 µM | GI50 (DMS 114 small cell lung) > 100 µM | GI50 (EKVX NSCLC) > 100 µM | GI50 (HCC-2998 colon) > 100 µM | GI50 (HCT-116 colon) > 100 µM | GI50 (HCT-15 colon) > 100 µM | GI50 (HOP-18 NSCLC) > 100 µM | GI50 (HOP-62 NSCLC) > 100 µM | GI50 (HOP-92 NSCLC) > 100 µM | GI50 (HT29 colon) > 100 µM | GI50 (IGROV1 ovarian) > 100 µM | GI50 (K-562 leukemia) > 100 µM | GI50 (KM12 colon) > 100 µM | GI50 (KM20L2 colon) > 100 µM | GI50 (LOX IMVI melanoma) > 100 µM | GI50 (M14 melanoma) > 100 µM | GI50 (M19-MEL melanoma) > 100 µM | GI50 (MALME-3M melanoma) > 100 µM | GI50 (MOLT-4 leukemia) > 100 µM | GI50 (NCI-H226 lung) > 100 µM | GI50 (NCI-H23 lung) > 100 µM | GI50 (NCI-H460 lung) > 100 µM | GI50 (NCI-H522 lung) > 100 µM | GI50 (OVCAR-3 ovarian) > 100 µM | GI50 (OVCAR-4 ovarian) > 100 µM | GI50 (OVCAR-5 ovarian) > 100 µM | GI50 (OVCAR-8 ovarian) > 100 µM | GI50 (RXF 393 renal) > 100 µM | GI50 (SF-268 CNS) > 100 µM | GI50 (SF-295 CNS) > 100 µM | GI50 (SF-539 CNS) > 100 µM | GI50 (SK-MEL-2 melanoma) > 100 µM | GI50 (SK-MEL-28 melanoma) > 100 µM | GI50 (SK-MEL-5 melanoma) > 100 µM | GI50 (SK-OV-3 ovarian) > 100 µM | GI50 (SN12C renal) > 100 µM | GI50 (SNB-19 CNS) > 100 µM | GI50 (SNB-75 CNS) 61.2 µM | GI50 (SNB-78 CNS) > 100 µM | GI50 (SR leukemia) > 100 µM | GI50 (SW-620 colon) > 100 µM | GI50 (TK-10 renal) > 100 µM | GI50 (U251 CNS) > 100 µM | GI50 (UACC-257 melanoma) > 100 µM | GI50 (UACC-62 melanoma) > 100 µM | GI50 (UO-31 renal) > 100 µM
